Consider four molecules from patent publication US20180079906A1, “AZACYANINE DYES AND USE THEREOF” (Ecole Polytechnique Fédérale de Lausanne (EPFL), priority 2016, published 2018).

The subject of one data set is 4T1-luc2 tumors. Briefly: In vivo NIR fluorescence imaging of subcutaneous 4T1 tumors in nude mice. As to the method:
Female nude mice 6-8 weeks of age were injected with […] of 4T1 cells in 100 ul of PBS subcutaneously into the right flank. Once the tumors reached approximately 0.5 cm^3 in size, animals were injected with 20 nmol of the imaging probe XXI intravenously in 100 ul of PBS. Mice were then imaged at different time points using IVIS Spectrum instrument (Perkin Elmer) at recommended settings 745/810 nm excitation/emission (FIGS. 11-12).

Another data set deals with mastocytoma tumor. Briefly: Fluorescence image-guided surgery of mastocytoma tumor in dogs. It counts as in vivo, dog. On the procedure: A kuvasz dog (male, 30 kg) diagnosed with mastocvtoma tumor on his right leg was used for image guided surgery study. All canine studies were performed at Veterinair Verwijscentrum Gouda, Netherlands. Canine was injected intravenous catheterization into the cephalic vein with fluorescence probe XXI (180 nmol/kg) 6h prior to surgery. Canine underwent to general anesthesia prior to surgery. Image guided cancer surgery was performed using Solaris Open-air Fluorescence Imaging System (Perkin Elmer), equipped with four fluorescent channels (470 nm, 660 nm, 750 nm and 800 nm) to obtain real-time visualization of tumor imaging in ambient light (FIGS. 13-15).
A labrador dog (male, 33 kg) diagnosed with mastocytoma tumor on his nose was used for image guided surgery study. All canine studies were performed at Veterinair Verwijscentrum Gouda, Netherlands. Canine was injected intravenous catheterization into the cephalic vein with fluorescence probe XXI (92 nmol/kg) 10 h prior to surgery. Canine underwent to general anesthesia prior to surgery. Image guided cancer surgery was performed using Solaris Open-air Fluorescence Imaging System (Perkin Elmer), equipped with four fluorescent channels (470 nm, 660 nm, 750 nm and 800 nm) to obtain real-time visualization of tumor imaging in ambient light (FIGS. 16-17).

The subject of data set [1] is skin tissue of a nude mouse. Briefly: Ex vivo cell death assay by cryogenic tissue damage (imaging necrosis). The conditions noted are these: for fluorescence at the site of focal dry-ice treatment: cryogenic tissue damage, 1, 5, 10 uM dye, 10 min at room temperature. The source says: Ex vivo cell death assay for compounds, VI and XIV were studied using a method of cryogenic tissue damage. […] After gentle washing with PBS, the samples were scanned for fluorescence using an IVIS Spectrum imaging system (FIG. 18-19).

For data set [2] the following is noted: cited from earlier work.
The conditions of data set [3]: in methanol, calibration standard; cited from earlier work.
[4] abbreviates: 30 kg dog, 180 nmol/kg I.V., 6h after injection.

In the case of `CC1(C)C2=CC=CN(CCCCCC(=O)NCCCC[C@@H]3NC(=O)[C@@H](Cc4ccccc4)NC(=O)[C@H](CC(=O)O)NC(=O)CNC(=O)[C@H](CCCNC(=N)N)NC3=O)C2=N/C1=C/C=C1\C[N+](C)(C)CC(/C=C/C2=Nc3c(ccc[n+]3CCCCCC(=O)NCCCC[C@H]3NC(=O)[C@H](Cc4ccccc4)NC(=O)[C@@H](CC(=O)O)NC(=O)CNC(=O)[C@@H](CCCNC(=N)N)NC3=O)C2(C)C)=C1Oc1ccc(S(=O)(=O)O)cc1.[Na+]` [Dye XXI], the “time post injection of optimal background/noise ratio calculated from the region of interest” value with 4T1-luc2 tumors (4T1 tumour bearing mice) is listed as 2 h. For the same molecule, the “tumor uptake (kinetics and specificity)” value with 4T1-luc2 tumors (subcutaneous tumors in mice) was “faster and more specific tumor uptake”. Further, in the data set with 4T1-luc2 tumors (subcutaneous tumors in mice, intravenous injection), the “time post injection at which optimal background to noise ratio is achieved” value was determined as 2 h. Further, in the data set on mastocytoma tumor (setting [4]), the “background uptake in normal tissue” value was “negligible” and the “identification of tumor by fluorescence in vivo” value is listed as “clearly identified”. Besides, the “time post injection of highest accumulation in the tumor tissue” value with mastocytoma tumor (dogs) is at most 6 h.
Turning to `CC1(C)C2=CC=CN(CCCCCC(=O)O)C2=N/C1=C/C=C1\C[N+](C)(C)CC(/C=C/C2=Nc3c(ccc[n+]3CCCCCC(=O)O)C2(C)C)=C1Oc1ccc(S(=O)(=O)O)cc1.[Na+]` [Dye XIV], the “fluorescence at the site of focal dry-ice treatment” value in data set [1] was “strong accumulation of fluorescence”.
With `CC1(C)C2=CC=CN(CCCCCC(=O)O)C2=N/C1=C/C=C1\C[N+](C)(C)CC(/C=C/C2=Nc3c(ccc[n+]3CCCCCC(=O)O)C2(C)C)=C1Cl` [Dye VI], the “fluorescence signal from viable cells” value in data set [1] (cryogenic tissue damage) is reported as “no signal”. For the same molecule, the “fluorescence at the site of focal dry-ice treatment” value in data set [1] was “strong fluorescence signal”.
For the molecule `CC1(C)C(/C=C/C=C/C=C/C=C2\N(CCCCS(=O)(=O)O)c3ccc4ccccc4c3C2(C)C)=[N+](CCCCS(=O)(=O)[O-])c2ccc3ccccc3c21` [ICG, Indocyanine Green], the solubility in saline entry in data set [2] is reported as “not readily soluble”. Moreover, the “fluorescence quantum yield (QY)” value in data set [3] is recorded as 7.8%.
